# Test results from the supplement of paper PMC10307832.
# Legend:
# Assay in all cases: relative viability (nuclei count vs DMSO), 5 days (fraction); higher = more cells survive
# [1] = compound: C1=CC=C2C(=C1)N=C(S2)C(C#N)C3=NC(=NC=C3)NCCC4=CN=CC=C4 + O=C(CCCCCCC(=O)Nc1ccccc1)NO [Vorinostat] (partner 1 µM)
# Procedure, shortened: (§1)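 Relative viability is defined as nuclei in treated wells over nuclei in vehicle wells. Duplicate plates were run and medians reported. Lung cancer cell lines in 1536-well plates were dosed by pin tool one day after seeding, with one drug or with a fixed anchor-drug dose plus five library-drug doses (not always all listed) in √10 steps, and nuclei were counted after 5 days.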
# NVP-TAE684 + Tozasertib = compound: COc1cc(N2CCC(N3CCN(C)CC3)CC2)ccc1Nc1ncc(Cl)c(Nc2ccccc2S(=O)(=O)C(C)C)n1 [NVP-TAE684] + Cc1cc(Nc2cc(N3CCN(C)CC3)nc(Sc3ccc(NC(=O)C4CC4)cc3)n2)n[nH]1 [Tozasertib] (partner 0.1 µM)
# Procedure, shortened: as §1
# NVP-TAE684 + Pictilisib = compound: COc1cc(N2CCC(N3CCN(C)CC3)CC2)ccc1Nc1ncc(Cl)c(Nc2ccccc2S(=O)(=O)C(C)C)n1 [NVP-TAE684] + CS(=O)(=O)N1CCN(Cc2cc3nc(-c4cccc5[nH]ncc45)nc(N4CCOCC4)c3s2)CC1 [Pictilisib] (partner 1 µM)
# Procedure, shortened: as §1
# Vandetanib + Vorinostat = compound: COc1cc2/c(=N/c3ccc(Br)cc3F)nc[nH]c2cc1OCC1CCN(C)CC1 [Vandetanib] + O=C(CCCCCCC(=O)Nc1ccccc1)NO [Vorinostat] (partner 1 µM)
# Procedure, shortened: as §1
Cell Line,relative viability ([1]; first compound 0.005 µM),relative viability ([1]; first compound 0.01581 µM),relative viability ([1]; first compound 0.05 µM),relative viability ([1]; first compound 0.1581 µM),relative viability ([1]; first compound 0.5 µM),relative viability (NVP-TAE684 + Tozasertib; first compound 0.2 µM),relative viability (NVP-TAE684 + Tozasertib; first compound 0.6325 µM),relative viability (NVP-TAE684 + Tozasertib; first compound 2 µM),relative viability (NVP-TAE684 + Pictilisib; first compound 0.6325 µM),relative viability (NVP-TAE684 + Pictilisib; first compound 2 µM),relative viability (Vandetanib + Vorinostat; first compound 0.06325 µM),relative viability (Vandetanib + Vorinostat; first compound 0.2 µM),relative viability (Vandetanib + Vorinostat; first compound 0.6325 µM),relative viability (Vandetanib + Vorinostat; first compound 2 µM),relative viability (NVP-TAE684 + Pictilisib; first compound 0.2 µM),relative viability (Vandetanib + Vorinostat; first compound 0.02 µM)
NCI-H1993,0.66,0.717,0.638,0.837,0.501,0.626,0.543,0.476,0.781,0.832,0.741,0.797,0.639,0.566,,
NCI-H2009,0.727,0.677,0.729,0.735,0.738,0.77,0.704,0.376,0.68,0.514,0.638,0.727,0.783,0.756,0.949,0.724
NCI-H2023,0.566,1.09,0.454,0.763,0.607,0.413,0.332,0.103,0.137,0.109,0.516,,0.561,0.489,0.244,0.563
NCI-H2085,0.726,0.737,0.781,0.826,0.903,0.803,0.781,0.379,0.427,0.415,0.74,0.66,0.773,0.777,0.445,0.836
NCI-H2087,0.338,0.666,0.353,1,0.435,0.22,0.262,0.166,0.886,0.858,0.604,0.657,0.614,0.922,0.942,0.755
NCI-H2126,0.637,0.75,0.701,0.855,0.647,0.96,0.764,0.407,0.501,0.428,0.736,0.703,0.702,0.699,0.491,0.801
NCI-H2170,0.756,0.86,0.777,0.887,0.877,0.735,0.632,0.543,0.248,0.275,0.829,0.816,0.767,0.813,0.272,0.84
NCI-H2228,0.449,0.629,0.83,0.646,0.664,0.196,0.129,0.136,0.167,0.223,0.474,0.747,1.04,0.679,0.281,0.592
NCI-H2347,0.578,0.524,0.551,0.72,0.558,0.59,0.487,0.359,0.482,0.597,0.387,0.575,0.678,0.574,0.572,0.643
